From patent US7932262B2 (Novartis AG, priority 2006, dated 2011)
Read-outs that look alike come from different tables or passages of the source.

Columns and labels:
[1] = target: T1, PDK1 kinase (Homo sapiens, UniProt O15530); test: PDK1 Kinase Alpha Screen Assay; type: biochemical; conditions: read-out: PDK1 IC50
T1 sequence (O15530 1-556): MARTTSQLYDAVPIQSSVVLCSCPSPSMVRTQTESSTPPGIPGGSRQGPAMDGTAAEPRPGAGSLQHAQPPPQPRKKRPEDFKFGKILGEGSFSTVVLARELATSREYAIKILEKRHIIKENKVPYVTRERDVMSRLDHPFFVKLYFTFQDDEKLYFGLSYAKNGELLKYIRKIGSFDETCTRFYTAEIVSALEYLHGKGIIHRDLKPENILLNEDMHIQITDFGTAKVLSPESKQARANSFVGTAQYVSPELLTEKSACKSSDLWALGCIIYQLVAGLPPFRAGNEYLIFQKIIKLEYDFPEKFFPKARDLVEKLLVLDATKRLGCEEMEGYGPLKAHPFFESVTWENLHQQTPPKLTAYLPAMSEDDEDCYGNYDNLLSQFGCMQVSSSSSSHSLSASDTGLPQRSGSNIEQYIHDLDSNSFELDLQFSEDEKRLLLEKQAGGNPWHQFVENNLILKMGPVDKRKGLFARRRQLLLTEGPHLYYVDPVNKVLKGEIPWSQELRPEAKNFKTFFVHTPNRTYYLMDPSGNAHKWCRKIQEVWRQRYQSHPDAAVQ
Description: 1. PDK1 Kinase Alpha Screen Assay
Reagents/Concentrations: The PDK1-4 peptide substrate, biotin-[…]-NH2, was purchased from the Tufts University Core Facility. The final concentration of PDK1-4 peptide substrate was 50 nM The ATP substrate (Adenosine-5′-triphosphate) was purchased from Roche Diagnostics. The final concentration of ATP substrate was 10 uM. Phospho-(Ser/Thr) PKA substrate antibody was purchased from Cell Signaling Technology. The final concentration of antibody was 0.3 mg/ml. The Alpha Screen Protein A detection kit containing donor and acceptor beads was purchased from PerkinElmer Life Sciences. The final concentration of both donor and acceptor beads was 25 μg/ml. Alpha Screen was used for detection. The biotinylated-PDK1-4 peptide was phosphorylated by PDK1 kinase using the ATP substrate. The biotinylated-PDK1-4 peptide substrate was bound to the streptavidin coated donor bead. The antibody was bound to the protein A coated acceptor bead. The antibody bound to the phosphorylated form of the biotinylated PDK-1 peptide substrate, bringing the donor and acceptor beads into close proximity. Laser irradiation of the donor bead at 680 nm generated a flow of short-lived singlet oxygen molecules. When the donor and acceptor beads were in close proximity, the reactive oxygen generated by the irradiation of the donor beads initiated a luminescence/fluorescence cascade in the acceptor beads. This process led to a highly amplified signal with output in the 530-620 nm range. Assays were carried out in 50 mM Tris, pH=7.5, 10 mM MgCl2, 0.1% Bovine Serum Albumin, 0.01% Tween-20, 2 mM Dithiolthreitol, 2.5% Dimethyl Sulfoxide. Reactions were stopped by adding 50 mM Tris, pH=7.5, 90 mM EDTA, 0.1% Bovine Serum Albumin, 0.01% Tween-20.
Procedure: To 10 μl of PDK1-4 peptide, 0.5 μl of test compound in dimethyl sulfoxide is added. PDK1 kinase and ATP are mixed. 10 μl of the PDK1 kinase/ATP mix is added to start the reaction. The reaction is allowed to proceed for 3-18 hours. The reactions are stopped by adding 10 μl of the EDTA-containing stop buffer. Beads are mixed with antibody. 25 μl of the bead/antibody mix is added to the stopped reactions. Plates are incubated at room temperature overnight to allow for detection development before being read. The assay is run is a 384-well format. […]

[2] = tested on: PC-3 cells; test: Cell Proliferation Assay (Cell Titer Glo), PC-3 cell line; type: cell-based; conditions: Homo sapiens
How it was run: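 PC-3 cells, 1000 cells/well, left to adhere 3-5 h, then exposed for 3 days at 37° C to compounds as 1:3 serial dilutions from 500× DMSO stocks diluted in growth medium. Medium then replaced with fresh medium and viability read by Cell Titer Glo luminescence.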

[3] = PC-3, Cell Proliferation Assay, PC3, read-out: CPEC50 PC3

| Compound | IC50 [1] [µM] | EC50 ([2]; PC-3, 72 h, PC-3 cells, 3 days incubation, read-out: CP EC50 PC3) [µM] | IC50 ([1]; PDK1 Kinase Alpha Screen Assay) [µM] | EC50 [2, 3] [µM] |
| --- | --- | --- | --- | --- |
| CC(C)N1CCC(Oc2cccc3cnc(Nc4ccc(C(F)(F)F)cc4)nc23)CC1 [Compound 85, [8-(1-Isopropyl-piperidin-4-yloxy)-quinazolin-2-yl]-(4-trifluoromethyl-phenyl)-amine] | < 5 | < 5 |  |  |
| CC(C)N1CCC(Oc2ccc3cnc(Nc4ccc(C(F)(F)F)cc4)nc3c2)CC1 [Compound 318, 7-(1-isopropylpiperidin-4-yloxy)-N-(4-(trifluoromethyl)phenyl)quinazolin-2-amine] |  |  | < 5 | < 5 |
| CC(C)N1CCC(Oc2ccc3cnc(Nc4ccc(OC(F)(F)F)cc4)nc3c2)CC1 [Compound 319, 7-(1-isopropylpiperidin-4-yloxy)-N-(4-(trifluoromethoxy)phenyl)quinazolin-2-amine] |  |  | < 5 | < 5 |
| CC(=O)Nc1ccc(Nc2ncc3ccc(OC4CCN(C(C)C)CC4)cc3n2)cc1Cl [Compound 320, N-(2-chloro-4-(7-(1-isopropylpiperidin-4-yloxy)quinazolin-2-ylamino)phenyl)acetamide] |  |  | < 5 | < 5 |
| CC(C)N1CCC(c2c(O)ccc3cnc(Nc4nc5ccccc5s4)nc23)CC1 [Compound 326, 2-(benzo[d]thiazol-2-ylamino)-8-(1-isopropylpiperidin-4-yl)quinazolin-7-ol] |  |  | < 5 | 5 to 10 |
| Cc1cc(Nc2ncc3ccc(OC4CCN(C(C)C)CC4)cc3n2)ccc1F [Compound 327, N-(4-fluoro-3-methylphenyl)-7-(1-isopropyl-piperidin-4-yloxy)-quinazolin-2-amine] |  |  | < 5 | 5 to 10 |
| CC(C)N1CCC(c2c(O)ccc3cnc(Nc4ccc(N5CCOCC5)cc4)nc23)CC1 [Compound 328, 8-(1-isopropylpiperidin-4-yl)-2-(4-morpholinophenylamino)quinazolin-7-ol] |  |  | < 5 | < 5 |
| O=c1[nH]c2ccc(Nc3ncc4ccc(OC5CCNCC5)cc4n3)cc2[nH]1 [Compound 330, 5-(7-(piperidin-4-yloxy)-quinazolin-2-ylamino]-1H-benzo[d]imidazol-2(3H)-one] |  |  | < 5 | 5 to 10 |
| O=S(=O)(c1ccc(Nc2ncc3ccc(OC4CCN(CC(F)F)CC4)cc3n2)cc1)N1CCOCC1 [Compound 334, 7-(1-(2,2-difluoroethyl)piperidin-4-yloxy)-N-(4-(morpholinosulfonyl)phenyl)quinazolin-2-amine] |  |  | < 5 | 5 to 10 |
| Brc1ccc(OC2CCNCC2)c2nc(Nc3cccc(N4CCOCC4)c3)ncc12 [Compound 336, 5-bromo-N-(3-morpholinophenyl)-8-(piperidin-4-yloxy)quinazolin-2-amine] |  |  | < 5 | 5 to 10 |
| CC(C)NC(=O)c1ccc(Nc2ncc3c(Br)ccc(OC4CCNCC4)c3n2)cc1 [Compound 337, 4-(5-bromo-8-(piperidin-4-yloxy)quinazolin-2-ylamino)-N-isopropylbenzamide] |  |  | < 5 | < 5 |
| Clc1cc(Nc2ncc3c(Br)ccc(OC4CCNCC4)c3n2)ccc1N1CCOCC1 [Compound 338, 5-bromo-N-(3-chloro-4-morpholinophenyl)-8-(piperidine-4-yloxy) quinazolin-2-amine] |  |  | < 5 | < 5 |
| Cc1ccc(OC2CCNCC2)c2nc(Nc3ccc(C(=O)NC(C)C)cc3)ncc12 [Compound 340, N-isopropyl-4-(5-methyl-8-(piperidin-4-yloxy)quinazolin-2-ylamino)benzamide] |  |  | < 5 | 5 to 10 |
| O=C(NC1CC1)c1ccc(Nc2ncc3c(Br)ccc(OC4CCNCC4)c3n2)cc1 [Compound 341, 4-(5-bromo-8-(piperidin-4-yloxy)quinazolin-2-ylamino)-N-cyclopropylbenzamide] |  |  | < 5 | 5 to 10 |
| O=C(c1ccc(Nc2ncc3ccc(-c4cn[nH]c4)cc3n2)cc1)N1CCOCC1 [Compound 344, (4-(7-(1H-pyrazol-4-yl)quinazolin-2-ylamino)phenyl)(morpholino)methanone] |  |  | < 5 | < 5 |
| CN1CCC(Nc2ccc3cnc(Nc4ccc(S(=O)(=O)N5CCOCC5)cc4)nc3c2)CC1 [Compound 346, N7-(1-methylpiperidin-4-yl)-N2-(4-(morpholinosulfonyl)phenyl)quinazoline-2,7-diamine] |  |  | < 5 | < 5 |

The next lines start with the values.

| IC50 [1] [µM] | EC50 ([2]; PC-3, 72 h, PC-3 cells, 3 days incubation, read-out: CP EC50 PC3) [µM] | IC50 ([1]; PDK1 Kinase Alpha Screen Assay) [µM] | EC50 [2, 3] [µM] | Compound |
| --- | --- | --- | --- | --- |
|  |  | < 5 | 5 to 10 | COc1cc(S(N)(=O)=O)c(OC)cc1Nc1ncc2ccc(OC3CCNCC3)cc2n1 [Compound 321, 2,5-dimethoxy-4-(7-(piperidin-4-yloxy)quinazolin-2-ylamino)benzenesulfonamide] |
|  |  | < 5 | 5 to 10 | Cc1ccc(Nc2ncc3ccc(OC4CCNCC4)cc3n2)cc1NS(C)(=O)=O [Compound 325] |
|  |  | < 5 | < 5 | CC(C)NC(=O)c1ccc(Nc2ncc3ccc(OC4CCN(C(C)C)CC4)cc3n2)cc1 [Compound 329, N-isopropyl-4-(7-(1-isopropylpiperidin-4-yloxy)quinazolin-2-ylamino)benzamide] |
|  |  | < 5 | < 5 | CC(C)N1CCC(Oc2ccc3cnc(Nc4ccc(S(C)(=O)=O)cc4)nc3c2)CC1 [Compound 331, 7-(1-isopropylpiperidin-4-yloxy)-N-(4-(methylsulfonyl)phenyl)quinazolin-2-amine] |
|  |  | < 5 | < 5 | O=S(=O)(c1ccc(Nc2ncc3ccc(OC4CCNCC4)cc3n2)cc1)N1CCOCC1 [Compound 332] |
|  |  | < 5 | < 5 | O=S(=O)(c1ccc(Nc2ncc3ccc(OC4CCN(CCF)CC4)cc3n2)cc1)N1CCOCC1 [Compound 333, 7-(1-(2-fluoroethyl)piperidine-4-yloxy)-N-(4-(morpholinosulfonyl)phenyl)quinazolin-2-amine] |
|  |  | < 5 | < 5 | Fc1ccc(Nc2ncc3cccc(OC4CCNCC4)c3n2)cc1 [Compound 335] |
|  |  | < 5 | < 5 | Fc1cc(Nc2ncc3c(Br)ccc(OC4CCNCC4)c3n2)ccc1N1CCOCC1 [Compound 339, 5-bromo-N-(3-fluoro-4-morpholinophenyl)-8-(piperidin-4-yloxy)quinazolin-2-amine] |
|  |  | < 5 | < 5 | CC(C)NS(=O)(=O)c1ccc(Nc2ncc3c(Br)ccc(OC4CCNCC4)c3n2)cc1 [Compound 342, 4-(5-bromo-8-(piperidin-4-yloxy)quinazolin-2-ylamino)-N-isopropylbenzenesulfonamide] |
|  |  | < 5 | < 5 | O=C(c1ccc(Nc2ncc3ccc(-c4cnn(CCF)c4)cc3n2)cc1)N1CCOCC1 [Compound 343, (4-(7-(1-(2-fluoroethyl)-1H-pyrazol-4-yl)quinazolin-2-ylamino)phenyl)(morpholino)methanone] |
|  |  | < 5 | < 5 | CN1CCC(Nc2ccc3cnc(Nc4ccc(C(=O)N5CCOCC5)cc4)nc3c2)CC1 [Compound 345, (4-(7-(1-methylpiperidin-4-ylamino)quinazolin-2-ylamino)phenyl)(morpholino)methanone] |
|  |  | < 5 | < 5 | O=C(c1ccc(Nc2ncc3ccc(NC4CCNCC4)cc3n2)cc1)N1CCOCC1 [Compound 347, morpholino(4-(7-(piperidin-4-ylamino)quinazolin-2-ylamino)phenyl)methanone] |
|  |  | < 5 | 5 to 10 | CN1CCC(CNc2ccc3cnc(Nc4ccc(C(=O)N5CCOCC5)cc4)nc3c2)CC1 [Compound 348] |
